According to ChEMBL document CHEMBL1144681, “Fluorination of triptolide and its analogues and their cytotoxicity” (Bioorg Med Chem Lett, 2008):
≈ marks a conversion by molar mass, not a printed value.

Tests used:
A549 = test: Cytotoxicity against human A549 cells; format: functional, cell-based
HT-29 = test: Cytotoxicity against human HT29 cells; format: functional, cell-based

Row | Structure (SMILES) | IC50 (A549) [ng/mL] | IC50 (HT-29) [ng/mL]
1 | CC(C)C1=C[C@]23O[C@H]2C[C@H]2C4=C(CC[C@]2(C)[C@@]32O[C@H]2[C@H]1F)C(=O)OC4 | 2200 (≈ 6.35 µM) | 210 (≈ 0.606 µM)
2 | CC(C)[C@]1(F)O[C@H]2[C@@H]3O[C@]34[C@]3(O[C@H]3C[C@H]3C5=C(CC[C@@]34C)C(=O)OC5)[C@H]21 | 997 (≈ 2.75 µM) | 72 (≈ 0.199 µM)
3 | CC(C)[C@]12O[C@@H]1[C@@H]1O[C@]13[C@]1(O[C@H]1C[C@H]1C4=C(CC[C@@]13C)C(=O)OC4)[C@@H]2F | 0.42 (≈ 0.00116 µM) | 0.06 (≈ 0.000166 µM)
4 | CC(C)C1=C[C@]23O[C@H]2C[C@H]2C4=C(CC[C@]2(C)[C@@]32O[C@H]2[C@@H]1F)C(=O)OC4 | 1500 (≈ 4.33 µM) | 150 (≈ 0.433 µM)
5 | CC(C)C1=C[C@]23O[C@H]2C[C@H]2C4=C(CC[C@]2(C)[C@@]32O[C@H]2[C@@H]1O)C(=O)OC4 | 81 (≈ 0.235 µM) | 17 (≈ 0.0494 µM)
6 | CC(C)[C@]12O[C@@H]1[C@@H]1O[C@]13[C@]1(O[C@H]1C[C@H]1C4=C(CC[C@@]13C)C(=O)OC4)[C@H]2F | 3 (≈ 0.00828 µM) | 0.24 (≈ 0.000662 µM)
7 | CC(C)C(=O)[C@H]1[C@@H](O)[C@@H]2O[C@]23[C@]12O[C@H]2C[C@H]1C2=C(CC[C@@]13C)C(=O)OC2 | > 1 | 86 (≈ 0.239 µM)
8 | CC(C)[C@]12O[C@H]1[C@@H]1O[C@]13[C@]1(O[C@H]1C[C@H]1C4=C(CC[C@@]13C)C(=O)OC4)[C@H]2O [EPITRIPTOIIDE] | 59 (≈ 0.164 µM) | 9.1 (≈ 0.0252 µM)
9 | CC(C)[C@]12O[C@H]1[C@@H]1O[C@]13[C@]1(O[C@H]1C[C@H]1C4=C(CC[C@@]13C)C(=O)OC4)[C@@H]2O [TRIPTOLIDE] | 1.3 (≈ 0.00361 µM) | 0.1 (≈ 0.000277 µM)
10 | CC(C)[C@]12O[C@H]1[C@@H]1O[C@@]13[C@@]1(C)CCC4=C(COC4=O)[C@@H]1C[C@@H]1O[C@@]13C2=O [TRIPTONIDE] | 3.5 (≈ 0.00977 µM) | < 0.46
